According to patent publication US12655116B2, “Substituted isophthalic acid diamides” (Bayer Aktiengesellschaft, priority 2020, dated 2026):

What was measured:
VIOTR [1] = experiment: Post-emergence herbicidal action against VIOTR; assay type: in vivo, Viola tricolor
How it was run: (§1)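 Greenhouse plants in sandy loam were sprayed at the one-leaf stage, 2 to 3 weeks after sowing, with WP or EC formulations as aqueous suspension or emulsion (600 to 800 l/ha water, 0.2% wetting agent). Visual damage was scored about 3 weeks later versus untreated controls, 0% = like control, 100% = dead.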

VIOTR [2] = experiment: Pre-emergence herbicidal action against VIOTR; assay type: in vivo, Viola tricolor
How it was run: (§2)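 Pre-emergence soil-surface spray of formulated compound (WP or EC; 600 to 800 l/ha; 0.2% wetting agent) over seeds sown in sandy loam. After 3 weeks under greenhouse conditions, damage is estimated visually in percent against untreated plants.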

ALOMY [3] = experiment: Pre-emergence herbicidal action against ALOMY; assay type: in vivo, Alopecurus myosuroides; settings: pre-emergence
How it was run: as §2

PHBPU [4] = experiment: Pre-emergence herbicidal action against PHBPU; assay type: in vivo, Pharbitis purpurea; settings: dosage 80 g/ha
How it was run: as §2

ECHCG [5] = experiment: Pre-emergence herbicidal action against ECHCG; assay type: in vivo, Echinochloa crus-galli
How it was run: as §2

ABUTH [6] = experiment: Post-emergence herbicidal action against ABUTH; assay type: in vivo, Abutilon theophrasti; settings: visual assessment about 3 weeks after treatment vs untreated controls
How it was run: as §1

VERPE [7] = experiment: Post-emergence herbicidal action against VERPE; assay type: in vivo, Veronica persica; settings: 20 g/ha
How it was run: as §1

ECHCG [8] = experiment: Post-emergence herbicidal action against ECHCG; assay type: in vivo, Echinochloa crus-galli
How it was run: as §1

SETVI [9] = experiment: Pre-emergence herbicidal action against SETVI; assay type: in vivo, Setaria viridis
How it was run: as §2

VERPE [10] = experiment: Pre-emergence herbicidal action against VERPE; assay type: in vivo, Veronica persica; settings: dosage 80 g/ha
How it was run: as §2

AMARE [11] = experiment: Post-emergence herbicidal action against AMARE; assay type: in vivo, Amaranthus retroflexus; settings: 20 g/ha, visual assessment about 3 weeks after treatment, 100% = plants have died, 0% = like control plants
How it was run: as §1

AMARE [12] = experiment: Pre-emergence herbicidal action against AMARE; assay type: in vivo, Amaranthus retroflexus
How it was run: as §2

DIGSA [13] = experiment: Post-emergence herbicidal action against DIGSA; assay type: in vivo, Digitaria sanguinalis
How it was run: as §1

ABUTH [14] = experiment: Pre-emergence herbicidal action against ABUTH; assay type: in vivo, Abutilon theophrasti
How it was run: as §2

DIGSA [15] = experiment: Pre-emergence herbicidal action against DIGSA; assay type: in vivo, Digitaria sanguinalis
How it was run: as §2

AVEFA = experiment: Pre-emergence herbicidal action against AVEFA; assay type: in vivo, Avena fatua; settings: 80 g/ha, pre-emergence
How it was run: as §2

MATIN = experiment: Pre-emergence herbicidal action against MATIN; assay type: in vivo, Matricaria inodora
How it was run: as §2

ALOMY [16] = experiment: Post-emergence herbicidal action against ALOMY; assay type: in vivo, Alopecurus myosuroides; settings: dosage 20 g/ha, visual assessment about 3 weeks after treatment vs untreated controls
How it was run: as §1

PHBPU [17] = experiment: Post-emergence herbicidal action against PHBPU; assay type: in vivo, Pharbitis purpurea
How it was run: as §1

SETVI [18] = experiment: Post-emergence herbicidal action against SETVI; assay type: in vivo, Setaria viridis; settings: dosage 20 g/ha
How it was run: as §1

[19] = 80 g/ha, scored visually after 3 weeks vs untreated controls (100% = plants have died, 0% = like control plants)
[20] = 20 g/ha, scored visually after 3 weeks vs untreated controls, 100% = plants have died, 0% = like control plants

## CCn1nnnc1NC(=O)c1ccc(C(F)F)c(C(=O)NC2CC2)c1Br [Example 2-227]
VIOTR [1]; Viola tricolor, 504 h, 5 g/ha
  pest or weed control at 5 g/ha: 90%
VIOTR [1]; Viola tricolor, 504 h, 20 g/ha
  pest or weed control at 20 g/ha: 100%
VIOTR [2]; Viola tricolor, 504 h, dosage 20 g/ha
  pest or weed control at 20 g/ha: 100%
VIOTR [2]; Viola tricolor, 504 h, dosage 80 g/ha
  pest or weed control at 80 g/ha: 100%
ALOMY [3]; Alopecurus myosuroides, 504 h, 80 g/ha, scored visually after 3 weeks vs untreated controls (100% = plants have died, 0% = like control plants)
  pest or weed control at 80 g/ha: 100%
ALOMY [3]; Alopecurus myosuroides, 504 h, 20 g/ha, scored visually after 3 weeks, 100% = plants have died, 0% = like control plants
  pest or weed control at 20 g/ha: 80%
PHBPU [4]; Ipomoea purpurea, 504 h
  pest or weed control at 80 g/ha: 90%
ECHCG [5]; Echinochloa crus-galli, 504 h, 80 g/ha
  pest or weed control at 80 g/ha: 100%
ABUTH [6]; Abutilon theophrasti, 504 h, dosage 5 g/ha
  pest or weed control at 5 g/ha: 100%
ABUTH [6]; Abutilon theophrasti, 504 h, dosage 20 g/ha
  pest or weed control at 20 g/ha: 100%
VERPE [7]; Veronica persica, 504 h
  pest or weed control at 20 g/ha: 80%
ECHCG [8]; Echinochloa crus-galli, 504 h, dosage 20 g/ha
  pest or weed control at 20 g/ha: 80%
SETVI [9]; Setaria viridis, 504 h, dosage 20 g/ha
  pest or weed control at 20 g/ha: 100%
SETVI [9]; Setaria viridis, 504 h, dosage 80 g/ha
  pest or weed control at 80 g/ha: 100%
VERPE [10]; Veronica persica, 504 h
  pest or weed control at 80 g/ha: 100%
AMARE [11]; Amaranthus retroflexus, 504 h
  pest or weed control at 20 g/ha: 100%
AMARE [12]; Amaranthus retroflexus, 504 h, 20 g/ha, scored visually after 3 weeks vs untreated controls, 100% = plants have died, 0% = like control plants
  pest or weed control at 20 g/ha: 100%
AMARE [12]; Amaranthus retroflexus, 504 h, 80 g/ha, scored visually after 3 weeks vs untreated controls, 100% = plants have died, 0% = like control plants
  pest or weed control at 80 g/ha: 100%
DIGSA [13]; Digitaria sanguinalis, 504 h, 20 g/ha
  pest or weed control at 20 g/ha: 100%
ABUTH [14]; Abutilon theophrasti, 504 h, 80 g/ha, scored visually after 3 weeks vs untreated controls (100% = plants have died, 0% = like control plants)
  pest or weed control at 80 g/ha: 100%
ABUTH [14]; Abutilon theophrasti, 504 h, dosage 20 g/ha, scored visually after 3 weeks vs untreated controls, 100% = plants have died, 0% = like control plants, read-out: Pre-emergence action against ABUTH (herbicidal activity in percent)
  pest or weed control at 20 g/ha: 100%
DIGSA [15]; Digitaria sanguinalis, 504 h, dosage 20 g/ha
  pest or weed control at 20 g/ha: 90%
DIGSA [15]; Digitaria sanguinalis, 504 h, dosage 80 g/ha
  pest or weed control at 80 g/ha: 100%
AVEFA; Avena fatua, 504 h
  pest or weed control at 80 g/ha: 90%
MATIN; Tripleurospermum inodorum, 504 h, dosage 20 g/ha
  pest or weed control at 20 g/ha: 100%
MATIN; Tripleurospermum inodorum, 504 h, dosage 80 g/ha
  pest or weed control at 80 g/ha: 100%

## Cn1nnnc1NC(=O)c1ccc(C(F)F)c(C(=O)NCC2CC2)c1Br [Example 1-228]
VIOTR [1]; 20 g/ha
  Post-emergence action against VIOTR in %: 80%
VIOTR [2]; dosage 20 g/ha
  Pre-emergence action against VIOTR in %: 90%
VIOTR [2]; dosage 80 g/ha
  Pre-emergence action against VIOTR in %: 100%
ALOMY [16]
  Post-emergence action against ALOMY in %: 90%
ALOMY [3]; [19]
  Pre-emergence action against ALOMY (herbicidal activity): 90%
PHBPU [4]
  Pre-emergence action against PHBPU in %: 90%
PHBPU [17]; dosage 5 g/ha
  Post-emergence action against PHBPU in %: 80%
PHBPU [17]; dosage 20 g/ha
  Post-emergence action against PHBPU in %: 80%
ECHCG [5]; 20 g/ha
  Pre-emergence action against ECHCG in %: 90%
ECHCG [5]; 80 g/ha
  Pre-emergence action against ECHCG in %: 100%
VERPE [7]
  Post-emergence action against VERPE in %: 90%
ECHCG [8]; dosage 20 g/ha
  Post-emergence action against ECHCG in %: 80%
SETVI [9]; dosage 80 g/ha
  Pre-emergence action against SETVI in %: 100%
VERPE [10]
  Pre-emergence action against VERPE in %: 90%
AMARE [11]
  Post-emergence action at 20 g/ha against AMARE in %: 90%
AMARE [12]; [20]
  Pre-emergence action against AMARE in %: 100%
AMARE [12]; [19]
  Pre-emergence action against AMARE in %: 100%
DIGSA [13]; 5 g/ha
  Post-emergence action against DIGSA in %: 90%
DIGSA [13]; 20 g/ha
  Post-emergence action against DIGSA: 90%
ABUTH [14]; [19]
  Pre-emergence action against ABUTH (herbicidal activity): 100%
ABUTH [14]; dosage 20 g/ha, scored visually after 3 weeks vs untreated controls, 100% = plants have died, 0% = like control plants
  Pre-emergence action against ABUTH (herbicidal activity in percent): 100%
DIGSA [15]; dosage 20 g/ha
  Pre-emergence action against DIGSA in %: 100%
DIGSA [15]; dosage 80 g/ha
  Pre-emergence action against DIGSA in %: 100%
AVEFA
  Pre-emergence action against AVEFA in %: 90%
MATIN; dosage 20 g/ha
  Pre-emergence action against MATIN in %: 80%
MATIN; dosage 80 g/ha
  Pre-emergence action against MATIN in %: 100%

## COCCNC(=O)c1c(C(F)F)ccc(C(=O)Nc2nnnn2C)c1Cl [Example 1-156]
VIOTR [2]; dosage 80 g/ha
  Pre-emergence action against VIOTR in %: 100%
ALOMY [16]
  Post-emergence action against ALOMY in %: 80%
ALOMY [3]; [19]
  Pre-emergence action against ALOMY (herbicidal activity): 90%
PHBPU [4]
  Pre-emergence action against PHBPU in %: 80%
PHBPU [17]; dosage 20 g/ha
  Post-emergence action against PHBPU in %: 90%
ECHCG [5]; 80 g/ha
  Pre-emergence action against ECHCG in %: 100%
ABUTH [6]; dosage 5 g/ha
  Post-emergence action against ABUTH in %: 90%
ABUTH [6]; dosage 20 g/ha
  Post-emergence action against ABUTH in %: 90%
VERPE [7]
  Post-emergence action against VERPE in %: 80%
ECHCG [8]; dosage 5 g/ha
  Post-emergence action against ECHCG in %: 80%
ECHCG [8]; dosage 20 g/ha
  Post-emergence action against ECHCG in %: 90%
SETVI [9]; dosage 80 g/ha
  Pre-emergence action against SETVI in %: 100%
AMARE [11]
  Post-emergence action at 20 g/ha against AMARE in %: 90%
AMARE [12]; [20]
  Pre-emergence action against AMARE in %: 100%
AMARE [12]; [19]
  Pre-emergence action against AMARE in %: 100%
DIGSA [13]; 20 g/ha
  Post-emergence action against DIGSA: 90%
ABUTH [14]; [19]
  Pre-emergence action against ABUTH (herbicidal activity): 100%
DIGSA [15]; dosage 20 g/ha
  Pre-emergence action against DIGSA in %: 100%
DIGSA [15]; dosage 80 g/ha
  Pre-emergence action against DIGSA in %: 100%
SETVI [18]
  Post-emergence action against SETVI in %: 80%
MATIN; dosage 20 g/ha
  Pre-emergence action against MATIN in %: 90%
MATIN; dosage 80 g/ha
  Pre-emergence action against MATIN in %: 100%
